Measurements as given in patent publication US20220299532A1, “CORRECTING PROTEIN MISFOLDING IN DIABETES” (Sanford Burnham Prebys Medical Discovery Institute, priority 2019, published 2022).

Columns and labels:
[1] = system: proinsulin complex formation; assay: Inhibition of ER to Golgi trafficking: proinsulin disulfide linked HMW complex formation; type: cell-based; conditions: BFA treatment; with or without cycloheximide
Description: Also, it is contemplated that increased proinsulin synthesis predisposes to oligomer and HMW complex formation. To test the notion that increased proinsulin expression, as in T2D, may exacerbate abnormal disulfide formation, the effect of brefeldin A (BFA), which promotes retrograde COP1 trafficking from the cis-Golgi to the ER to prevent export of secretory proteins to the Golgi, and thus increasing their concentration in the ER, was tested.

INS1E cells = assay: Proinsulin disulfide-linked complexes in INS1E cells, nonreducing/reducing SDS-PAGE and immunoblotting (mAb CCI-17); type: cell-based, rat; conditions: INS1E cells
Description: HEK293T human cells lines were cultured in DMEM supplemented with 10% FBS and penicillin/streptomycin.
Lysis of cells or islets for SDS-PAGE and electrotransfer: After removal of media, cells were washed once with ice-cold PBS and lysed in RIPA buffer (10 mM Tris pH 7.4, 150 mM NaCl, 0.1% SDS, 1% NP40, 2 mM EDTA) plus protease inhibitor/phosphatase inhibitor cocktail (Sigma-Aldrich) or directly in Laemmli gel sample buffer. Lysates in RIPA buffer were immediately spun at 10,000 rpm for 10 min at 4° C. and the supernatants analyzed further or stored at −80° C. […] Lysis was carried out by gently pipetting or by syringe through a 30G needle. […] Nonreducing gels were incubated in a solution containing 20 mM dithiothreitol (DTT) for 10 min at room temperature prior to electrotransfer.
The lane was then laid horizontally on top of a 10% SDS-polyacrylamide resolving gel and sealed in place in stacking gel. A single-tooth comb was introduced at one end of the stacking gel to introduce a one-dimensional reduced sample of proinsulin containing cell lysate (which runs as proinsulin monomer). The gel was run at 200 V for 45 mins in Tris-Glycine buffer pH 8.8 with electrotransfer as described above.
(§1) Immunoblotting: Transfer membranes were rinsed once in TBST (15 mM Tris, 150 mM NaCl, 0.1% Tween-20), blocked using TST plus 5% BSA for 1 h at room temperature, and then washed four times (5 min each) in TBST. Primary antibody and secondary antibodies were diluted in TBST and each of […] incubations was 1 h at room temperature followed by 4 washes in TBST. On occasion, primary antibodies were incubated overnight at 4° C. Secondary antibodies were all HRP-conjugates. Development of immunoblots used enhanced chemiluminescence (Immobilon, Millipore, or SuperSignal West Pico PLUS, Thermo Fisher Scientific) with images captured using a Fotodyne gel imager.

mouse pancreatic islets = assay: Proinsulin disulfide-linked / HMW complexes in murine islets, SDS-PAGE immunoblot (CCI-17); type: cell-based
Description: Mouse pancreatic islet isolation: Mice were euthanized by CO2 narcosis as per an approved institutional animal protocol. The pancreas was rapidly excised, minced in ice-cold PBS, and digested in 4 mL of Collagenase P (Roche) 1.5 mg/mL in Hank's Balanced Salt Solution containing calcium and magnesium, in a shaking water bath for 30 min at 37° C. The digestion was terminated in 40 mL ice-cold PBS (—Ca/—Mg) and the digested tissue washed twice in this buffer. The sedimented tissue digest was then overlaid with 3 mL Histopaque-1077 and further overlayed with 6 mL ice cold PBS (—Ca/—Mg) before centrifugation (3000 rpm for 20 min at 10° C. with no brake) and transfer of the midlayer of the Histopaque gradient to a 15 ml tube for two further washes in ice-cold PBS. Finally, the sedimented tissue was transferred to a petri dish in ice-cold RPMI-1640 buffer and islets hand-picked to purity. In experiments involving drug or compound treatment, the islets were finally recovered overnight in RPMI-1640 supplemented with 10% fetal bovine serum (FBS), 10 mM HEPES pH 7.35, 1 mM sodium pyruvate and 0.05 mM beta-mercaptoethanol, in a humidified 5% CO2 incubator at 37° C. For some experiments, islets were snap frozen in liquid nitrogen and stored frozen prior to analysis.
Lysis of cells or islets for SDS-PAGE and electrotransfer: After removal of media, cells were washed once with ice-cold PBS and lysed in RIPA buffer (10 mM Tris pH 7.4, 150 mM NaCl, 0.1% SDS, 1% NP40, 2 mM EDTA) plus protease inhibitor/phosphatase inhibitor cocktail (Sigma-Aldrich) or directly in Laemmli gel sample buffer. Lysates in RIPA buffer were immediately spun at 10,000 rpm for 10 min at 4° C. and the supernatants analyzed further or stored at −80° C. Islets that had been quick frozen were placed on ice and RIPA buffer containing protease inhibitor cocktail and phosphatase inhibitor was added. Lysis was carried out by gently pipetting or by syringe through a 30G needle. Total protein concentration in the lysate was determined by BCA or Bramhall assay, and 5-10 μg of samples prepared in SDS sample were resolved by SDS-PAGE in 4-12% Bis-Tris NuPAGE gels (Invitrogen) at 200 V for 30 min. Nonreducing gels were incubated in a solution containing 20 mM dithiothreitol (DTT) for 10 min at room temperature prior to electrotransfer.
as §1
Islet Isolation: Islets were isolated by collagenase P (Roche) perfusion as described following by histopaque-1077 (Sigma-Aldrich, Inc. St. Louis) gradient purification. Islets were handpicked and studied directly or after overnight culture in RPMI 1640 medium (Corning 10-040-CV) supplemented with 10% FBS, 1% penicillin/streptomycin, 100 μg/m1 primocin, 10mM Hepes, and 1mM sodium pyruvate.
Islet Western Blotting: Isolated islets were lysed in RIPA buffer (10 mM Tris pH 7.4, 150 mM NaCl, 0.1% SDS, 1% NP-40, 2mM EDTA) with protease and phosphatase inhibitors (Fisher Scientific) on ice for 10 min and lysates were collected after centrifugation at 4° C. for 10 min at 12000 g. Samples were prepared in Laemmli sample buffer without (non-reducing) or with (reducing) 5% β-mercaptoethanol. After boiling for 5 min, samples were analyzed by SDS-PAGE (4-12% Bis-Tris gel, (Bio-Rad Laboratories, Inc.)) and transferred to nitrocellulose membranes (Bio-Rad Laboratories, Inc.). […]

islets = assay: Analysis of oxidative stress in islets (CellROX Deep Red, Hoechst 33342); type: cell-based, mouse; conditions: islets after 30 wks HFD, menadione 10 μM, 3 h
Description: Analysis of Oxidative Stress: Islets were plated onto CellCarrier™-96 ultra microplates (Perkin Elmer) in phenol red-free RPMI 1640 medium supplemented with 10% FBS, 1% penicillin/streptomycin, 100 μg/ml primocin, 10mM Hepes, and 1 mM sodium pyruvate one day prior to staining. Islets were treated with menadione (AdipoGen Life Science, 10 μM) for 3 h at 37° C. Islets were stained with CellROX® Deep Red reagent (Molecular Probes, C10422, 100 μM) and Hoechst 33342 (Invitrogen, 10 μg/ml) for 1 h at the same time. Islets were washed three times with HBSS and incubated in HBSS for imaging while temperature and CO2 were controlled. […]
Because ER stress is linked with oxidative stress, the inventors tested whether Pdia1 deletion confers increased sensitivity to oxidants by treating islets (isolated after 30 wks of HFD) with the vitamin K analogue menadione, which can render cells susceptible to apoptosis by increasing cytosolic calcium with nuclear condensation. […] In FIG. 21B, quantification of ROS mean intensity is shown. CellROX Deep Red mean intensity (divided by area) was measured by image J software. […] In FIG. 21C, quantification of nuclear mean area (μm^2) measured in Hoechst 33342 stained images by ImageJ software is shown. […] Quantification of the ratio of HMW proinsulin complexes (a) to monomeric proinsulin under reducing conditions is shown in graph (lower). […]

[2] = islets, NEM treatment to alkylate free sulfhydryls

C[C@@H]1C[C@@H]([C@H](O)CC2CC(=O)NC(=O)C2)C(=O)[C@@H](C)C1 [cycloheximide]
proinsulin complex formation [1]: did not significantly affect the results

CC(C)NCCCn1c(Sc2cc(Cl)cc(Cl)c2)nc2c(N)ncnc21 [PU-WS13]
proinsulin disulfide-linked complex formation triggered by acute loss of BiP (INS1E cells; PU-WS13 20 μM 24 h, SubAB during last 3 h): did not exacerbate the proinsulin disulfide-linked complex formation
proinsulin disulfide-linked complex formation (INS1E cells; PU-WS13 20 μM, 24 h): did not promote proinsulin disulfide-linked complex formation

C[C@H]1CCC/C=C/[C@@H]2C[C@H](O)C[C@H]2[C@H](O)/C=C/C(=O)O1 [BFA, brefeldin A]
proinsulin complex formation [1]: significantly increased proinsulin complex formation

CC1=CC(=O)c2ccccc2C1=O [menadione]
HMW proinsulin complexes (49-198 kDa), increase by Pdia1 deletion vs WT islets (mouse pancreatic islets; islets after 37 wks HFD, menadione 100 μM, 1 h): this effect was even greater in islets treated with menadione
ROS (CellROX Deep Red stain) (islets): significantly increased ROS
nuclear size (Hoechst 33342) (islets): promoted nuclear condensation

CCN1C(=O)C=CC1=O [N-ethylmaleimide]
HMW proinsulin-containing complexes (mouse pancreatic islets; [2]): slightly increased the HMW proinsulin-containing complexes
disulfide-linked proinsulin oligomers (mouse pancreatic islets; [2]): slightly reduced the disulfide-linked oligomers

C#CCNc1nc(NCCNC(=O)CCl)nc(N(C)CCCCc2ccccc2)n1 [KSC-34]
HMW proinsulin complexes, combination with menadione (mouse pancreatic islets; WT murine islets, KSC-34 3 h then menadione 100 μM 1 h): recapitulated the effect of Pdia1 deletion upon menadione treatment
HMW proinsulin complexes (mouse pancreatic islets; WT murine islets, KSC-34 alone, 3 h): slightly increased HMW complexes
